Laboratory results reported in patent publication US11708391B2, “Rapaglutins, novel inhibitors of GLUT and use thereof” (The Johns Hopkins University, priority 2016, dated 2023).

Assays:
[1] = system: pancreatic cancer PANC10.05; experiment: alamar blue assay, PANC10.05; assay type: cell-based, human; details: PANC 10.05
Text: Dose-dependent inhibition of cell proliferation by A18 and E11 was next evaluated in several other human cancer cell lines, including breast cancer HCC1954, pancreatic cancer PANC10.05, leukemia Jurkat T and colon cancer RKO (FIGS. 1b and 1c). […] (FIGS. 1 and 9; Table 3)

[2] = system: T1, glucose transporters; experiment: 2-deoxy-D-[3H] glucose uptake in A549 cells; assay type: cell-based, human; details: for inhibition of glucose transport: A549 cells, glucose uptake assay
T1 construct: IC50 uptake of 3H-labeled 3-O-methylglucose; other: A549 cells; compared with 3-O-methylglucose uptake; other: A549 cells treated with drugs for 1 min; other: A549 cells, glucose uptake assay; other
Method: FIGS. 2A-2D. Inhibition of Glucose Transport by A18 and E11. (a) Inhibition of 3-O-methyl¬D-[3H] glucose uptake in A549 cells by A18. (b) Inhibition of 3-O-methyl-D-[3H] glucose uptake in A549 cells by E11. (c) Inhibition of 2-deoxy-D-[3H] glucose uptake in A549 […] cells by A18. (d) Inhibition of 2-deoxy-D-[3H] glucose uptake in A549 cells by E11.
FIGS. 16A-16B. Inhibition of Glucose Transport by A18 and E11. Cytochalasin B (10 μM), A18 (3 μM), E11 (3 μM) and DMSO control were used to treated A549 cells for 10 min (a) or 1 min (b), then glucose uptake in the treated cells was measured at 1, 3, 10 and 30 min after the addition of 2-dexoy-D-[^3H] glucose.
Direct action on glucose transporters was measured by monitoring uptake of 3H-labeled 3-O-methylglucose, which is transported by glucose transporters but not metabolized further, allowing the assessment of initial rate of glucose uptake. […] Initial uptake can also be assessed by measuring the uptake of 3H-labeled 2-deoxy-D-glucose, which gets into the cell through glucose transporters and is phosphorylated by hexokinase but cannot be metabolized further due to the lack of oxygen at the second position.

[3] = molecular target: T2, GLUT1 (Homo sapiens, UniProt P11166); experiment: 3-O-methyl-D-[3H] glucose uptake in RBC-derived ghosts; assay type: cell-based
T2 construct: endogenous in cells; host or cells: erythrocyte (RBC-derived) ghosts
T2 sequence (P11166 1-492): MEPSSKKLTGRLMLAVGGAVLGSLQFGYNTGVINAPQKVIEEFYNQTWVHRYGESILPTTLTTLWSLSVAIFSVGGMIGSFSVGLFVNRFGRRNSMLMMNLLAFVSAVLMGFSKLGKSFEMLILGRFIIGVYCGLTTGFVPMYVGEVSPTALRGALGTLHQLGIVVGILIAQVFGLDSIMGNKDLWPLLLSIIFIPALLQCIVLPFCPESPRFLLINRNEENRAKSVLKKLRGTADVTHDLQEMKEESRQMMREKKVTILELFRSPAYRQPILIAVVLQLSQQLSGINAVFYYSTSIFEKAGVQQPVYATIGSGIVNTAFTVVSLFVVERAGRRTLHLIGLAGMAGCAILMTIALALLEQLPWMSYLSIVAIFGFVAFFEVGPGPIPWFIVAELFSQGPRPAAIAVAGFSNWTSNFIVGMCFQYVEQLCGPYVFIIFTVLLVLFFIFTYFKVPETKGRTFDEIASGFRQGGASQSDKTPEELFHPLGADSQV
Text: FIGS. 3A-3D. Inhibition of Glucose Transport by A18 and E11. (a) Inhibition of 3-O-methyl-D-[3H] glucose uptake in human red blood cells by A18. (b) Inhibition of 3-O-methyl-D-[3H] glucose uptake in human red blood cells by E11. (c) Inhibition of 3-O-methyl-D-[3H] glucose uptake in erythrocyte ghosts by A18. (d) Inhibition of 3-O-methyl-D-[3H] glucose uptake in erythrocyte ghosts by E11.
A18 and E11 were previously shown to have a broad spectrum of anticancer activity. […] To test this hypothesis, red blood cells (RBCs) were applied as a cell model because RBCs express Glut1 as their sole glucose transporter and have been frequently used in studying glucose transport. […] To eliminate other possibilities, the glucose uptake assays were repeated in RBC-derived ghosts, in which all the intracellular proteins and enzymes were removed and only membrane-bound and membrane-associated proteins remained. […] (see FIGS. 2, 3 and 15-18)

[4] = molecular target: T2, GLUT1; experiment: pulldown with biotin-rapafucin conjugates from RBC-derived ghosts lysate, anti-GLUT1 Western blot; assay type: binding; details: for binding to GLUT1 in pulldown assay: RBC-derived ghosts cell lysate, Western blot; for competition of the binding of the other rapafucin's probe to GLUT1: pulldown, A18 probe versus E11 and vice versa
Text: FIGS. 6A-6B. Identification of direct interaction of A18 and E11 to Glut1. Glut1 protein levels of A18 (a) or E11 (b) pull down samples analyzed by western blotting.
After showing that GLUT1 was very likely to be the target of A18 and E11, the direct interaction of A18 and E11 to GLUT1 was then examined. A series of biotin or diazrine-alkyne rapafucin conjugates through different positions were synthesized. […] Importantly, the binding of the biotin-rapafucin probe to GLUT1 is competed by rapafucin. […] (FIGS. 6, 21, 22 and 27)

[5] = system: HEK 293T; experiment: flow cytometric cell cycle analysis in HEK 293T; assay type: cell-based; details: 5 μM, 24 h
Method: FIGS. 25A-25C. A18 and E11 inhibit cell cycle progression in the S phase. HEK 293T were incubated with DMSO (a), 5 μM A18 (b) or 5 μM E11 (c) for 24 h before they were harvested for cell cycle analysis.

[6] = system: mTOR; experiment: Western blot, mTOR / S6K in HEK 293T; assay type: cell-based
Text: FIGS. 7A-7B. (a) A18 activates AMPK and inhibits S6K in HEK 293T cells. […] (b) A18 and E11 activate AMPK and inhibit S6K in HEK 293T cells.
Whether A18 and E11 treatment affect key cell growth signaling proteins was examined next. […] But it has no effects on the phosphorylation of ERK, AKT or JNK (FIG. 7). As previously reported, AMPK is likely to act as the key link between the ATP reduction and the subsequent cancer cell inhibition. (FIGS. 7 and 23-25). Based on the data reported here, the working model for A18 and E11 was proposed as outlined in FIG. 8. […] These led to upregulation of phosphorylation of AMPK and downregulation of phosphorylation of S6K. […] (FIG. 8)

[7] = system: IL2; experiment: IL2 reporter / IL-2 production in Jurkat T cells; assay type: cell-based
Text: FIGS. 28A-28D. (a) A18 and E11 inhibit NFAT and A18, but not E11, stimulates SRE reporter gene signal. (b) E11 inhibits NFAT, NF-κB and IL2, but not MEF-2 or AP-1 pathways, in Jurkat T cells. (c) Glucose inhibitor stimulates SRE reporter gene signal.
Both A18 and E11 have shown immunosuppressive activity, blocking NFAT reporter gene activation and IL-2 production (see e.g., FIG. 28). As such, they can be used as immunosuppressive agents that have applications in treating organ transplantation rejection and all kinds of autoimmune diseases. […]

Compound	IC50 ([1]; Homo sapiens, Panc1005)	inhibition of glucose transport [2]	IC50 [3]	binding to GLUT1 in pulldown assay [4]	competition of the binding of the other rapafucin's probe to GLUT1 [4]	additional cells in S phase [5]	mTOR inhibition (S6K) [6]	IL-2 production [7]	IC50 [1]	glucose uptake inhibition ([2]; A549 cells treated with drugs for 1 min)	IC50 glucose uptake [3]	IL2 pathway ([7]; Jurkat T cells)
CC[C@@H](C)[C@H]1C(=O)NCC(=O)N(C)CC/C=C/C(=O)OCC(C)(C)C(=O)C(=O)N2CCCC[C@H]2C(=O)O[C@H](CCc2ccc(OC)c(OC)c2)c2cccc(c2)NC(=O)CCC(=O)N(C)[C@@H](CC(C)C)C(=O)N[C@H](Cc2ccccc2)C(=O)N1C [A18]	119 nM	significantly inhibit	49.5 nM	can bind directly to GLUT1	vice versa	approximately 10%	mTOR inhibition	blocking	–	–	–	–
Gly-^MSerBu-Nal-^MAla [E11]	–	significantly inhibit	–	can bind directly to GLUT1	cannot be competed	approximately 10%	mTOR inhibition	blocking	79.8 nM	50%	totally lost its inhibitory activity	inhibits
